Read-outs that look alike come from different tables or passages of the source.
Tests used:
pVHL-HIF-1α interaction [1] = assay: pVHL interaction with HIF-1α sequences translated in reticulocyte lysate in the presence of metal ions; assay type: binding, human; settings: subsequences 556-574, 549-574, 556-582, 549-582; 100 μM Fe2+ and 100 μM Fe3+
pVHL-HIF-1α interaction [2] = target: pVHL-HIF-1α interaction (Homo sapiens, UniProt P40337+Q16665); assay: as above; assay type: binding
HIF-1α = assay: In vitro ubiquitylation assay for HIF-1α; assay type: biochemical, human
Experimental: To test the hypothesis that pVHL is a necessary component of a ubiquitin ligase complex recognising HIF-α we developed an in vitro ubiquitylation assay for HIF-1α. In this assay, cell extracts (initially from Cos-7) were incubated with [^35S]labelled HIF-1α prepared in vitro in reticulocyte lysates. This was used as substrate in reactions with different combinations of extract, an ATP-regenerating system, ubiquitin aldehyde, and methylated ubiquitin. Reactions were incubated at 30° C. for 270 minutes before analysis by SDS-PAGE.
Incubation with extract alone converted the HIF-1α substrate to a slower migrating form, an effect which was enhanced by an ATP-regenerating system, and was prevented by addition of the protein kinase inhibitor 2-aminopurine. […] This assignment was confirmed by enhancement with addition of ubiquitin aldehyde, an isopeptidase inhibitor that prevents the breakdown of ubiquitin conjugates.
An experiment similar to that of section (h) above was performed but with the omission of ubiquitin aldehyde. pVHL was generated by in vitro transcription translation, and HIF-1α was also generated in reticulocyte lysate in the presence or absence of 100 μM Fe2+ and Fe3+. […] Thus assays of the invention may be used for the identification of compounds acting at a point distal to the HIF-pVHL interaction (i.e. not altering binding but interfering with tagging or destruction). It also provides further evidence for modifications of HIF influencing its ability to bind pVHL. […]
In vitro ubiquitylation assay. […] Aliquots were removed at indicated times, mixed with SDS sample buffer and analysed by SDS-PAGE and autoradiography. Gels were quantitated using a Storm 840 PhosphorImager (Molecular Dynamics).

[3] = test system: pVHL interaction with HIF-1α and HIF-2α; assay: Anti-pVHL immunoprecipitation of RCC4/VHL cell extracts, immunoblot for HIF α subunits; settings: treated RCC4/VHL cells, compared with hypoxic cells
pVHL/HIF-1 complex = pVHL/HIF-1 complex (Homo sapiens, UniProt P40337+Q16665); assay: EMSA / anti-pVHL supershift of the HIF-1 DNA binding complex from treated RCC4/VHL cells; settings: for HIF-1 complex species seen in EMSA: RCC4/VHL cells cultured four hours, 100 μM
[4] = full HIF-1α, 100 μM ion during translation

iron
amount of interaction of pVHL with HIF-1 subsequences (pVHL-HIF-1α interaction [1]): substantial increase
interaction of pVHL with HIF-1α translated in the presence of the ion (pVHL-HIF-1α interaction [2]; [4]): enhances
ubiquitylation of HIF-1α produced in the presence of the ions (HIF-1α; HIF-1α generated in reticulocyte lysate with 100 μM Fe2+ and Fe3+, ubiquitin aldehyde omitted): Enhanced ubiquitylation

Nc1ncc2[nH]cnc2n1 [2-aminopurine]
conversion of HIF-1α substrate to a slower migrating form (phosphorylation) (HIF-1α; Cos-7 cell extract, 30° C.): prevented

ubiquitin aldehyde
generation of high molecular weight polyubiquitylated HIF-1α species (HIF-1α; Cos-7 cell extract, 30° C., 270 minutes): enhancement

CC(=O)N(O)CCCCCNC(=O)CCC(=O)N(O)CCCCCNC(=O)CCC(=O)N(O)CCCCCN [desferrioxamine]
HIF-1α and HIF-2α contained in anti-pVHL immunoprecipitates [3]: neither protein was contained
HIF-1 complex species seen in EMSA (pVHL/HIF-1 complex): only the faster mobility HIF-1 complex
pVHL/HIF-1 complex forming (pVHL/HIF-1 complex; treatment four hours prior to hypoxia): prevented

[Ni+2] [nickel]
interaction of pVHL with HIF-1α translated in the presence of the ion (pVHL-HIF-1α interaction [2]): diminishes

[Cl-].[Cl-].[Co+2] [cobalt, cobaltous chloride]
interaction of pVHL with HIF-1α translated in the presence of the ion (pVHL-HIF-1α interaction [2]; [4]): diminishes
HIF-1α and HIF-2α contained in anti-pVHL immunoprecipitates [3]: neither protein was contained
HIF-1 complex species seen in EMSA (pVHL/HIF-1 complex): only the faster mobility HIF-1 complex
